Patent US10912818B2, “Use of microorganisms for the prevention and treatment of intestinal diseases” (Ludwig Stocker Hofpfisterei GmbH, priority 2013, dated 2021)
Entries after “also recorded” stand apart in the source; their conditions may differ.

Tests used:
[1] = system: corpus circular muscle preparations; test: Motility: contractile force of corpus circular muscle preparations in organ bath; assay type: cell-based, guinea pig
[2] = system: distal colon mucosa/submucosa preparations; test: Ussing chamber: short circuit current (chloride ion secretion) across colonic mucosa/submucosa preparations; assay type: cell-based, guinea pig

SMILES	Effect of atropine pre-treatment on muscle contraction stimulated by ACH and extracts [1]	Effect of atropine applied mucosally on secretion stimulated by ACH applied serosally [2]	Effect of atropine applied on mucosal side on secretion stimulated from the mucosal side [2]	Effect of atropine applied on serosal side on secretion stimulated from the mucosal side [2]	Effect of atropine pre-treatment on secretion stimulated by ACH and extracts [2]	Effect of TTX pre-treatment on muscle contraction stimulated by ACH and extracts [1]
CN1[C@@H]2CC[C@H]1C[C@@H](OC(=O)C(CO)c1ccccc1)C2 (stereo partly drawn) [atropine]	completely abrogated stimulation; also recorded: completely abolished	secretion was inhibited	only partially inhibiting ACH activity; also recorded: not mucosally	significantly inhibited; also recorded: completely abrogated secretion	completely abolished the response; also recorded: completely abrogated secretion stimulation	
NC1=N[C@H](O)[C@H]2[C@H]3O[C@]4(O)O[C@@H]([C@@H](O)[C@@]2(N1)[C@@H]4O)[C@]3(O)CO [TTX, Tetrodotoxin]						no significant effect
